# From article PMC5355877, “The development of novel LTA4H modulators to selectively target LTB4 generation” (Scientific Reports, 2017)
# Where “and” joins values, the source holds several entries; their conditions need not be identical. Equal values may be shown once. Read-outs that look alike come from different tables or passages of the source.
# Key:
# [1] = molecular target: T1, recombinant human LTA4H (aminopeptidase, PGP substrate) (Homo sapiens, UniProt P09960); experiment: LTA4H aminopeptidase activity: PGP degradation by recombinant human LTA4H; type: biochemical
# T1 construct: purchased Cayman Chemicals
# T1 sequence (P09960 1-611): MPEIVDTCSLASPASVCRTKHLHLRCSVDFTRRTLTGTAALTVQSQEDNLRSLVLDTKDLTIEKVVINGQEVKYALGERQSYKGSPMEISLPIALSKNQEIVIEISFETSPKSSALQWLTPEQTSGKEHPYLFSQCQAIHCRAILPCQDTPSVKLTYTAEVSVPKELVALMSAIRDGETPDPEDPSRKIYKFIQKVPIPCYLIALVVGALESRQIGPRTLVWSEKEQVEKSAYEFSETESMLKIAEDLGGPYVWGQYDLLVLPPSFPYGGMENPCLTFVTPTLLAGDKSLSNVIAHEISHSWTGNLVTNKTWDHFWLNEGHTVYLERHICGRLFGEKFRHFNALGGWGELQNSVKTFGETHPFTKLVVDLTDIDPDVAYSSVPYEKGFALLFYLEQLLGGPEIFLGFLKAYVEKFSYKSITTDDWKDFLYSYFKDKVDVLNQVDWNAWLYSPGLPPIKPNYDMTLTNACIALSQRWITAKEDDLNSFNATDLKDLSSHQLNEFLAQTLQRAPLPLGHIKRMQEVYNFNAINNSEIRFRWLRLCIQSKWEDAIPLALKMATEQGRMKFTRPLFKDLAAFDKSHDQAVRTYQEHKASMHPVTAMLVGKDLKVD
# Method: For peptide quantification in serum, PGP and AcPGP were measured using a MDS Sciex API-4000 spectrometer (Applied Biosystems, Foster City, CA) equipped with a Shimadzu HPLC (Columbia, MD). For peptide quantification from degradation experiments, PGP and AcPGP were measured using a Thermo Accela Pump and Autosampler coupled to a Thermo TSQ Quantum Access. […] Peak area was measured, and PGP/AcPGP peptide concentrations were calculated using a relative standard curve method as previously described.
# Mouse serum (diluted 1/10 in PBS) or recombinant human LTA4H (0.1 μg/ml; Cayman Chemicals, Michigan, USA) were incubated with 0.4 mM PGP at 37 °C in 5% CO2 for varying periods of time. Concentrations of PGP remaining were subsequently quantified by ESI-LC/MS/MS (as discussed above) by comparison with PGP standards. The percentage of peptide degraded was determined relative to control samples of 0.4 mM PGP alone. PGP degradation was also assessed by measurement of free proline released and its ensuing reaction with Ninhydrin (as discussed below). Test compounds were assayed in a blinded manner by an investigator during determination of the effect on LTA4H aminopeptidase activity.
# To assess free proline liberated, aliquots from PGP degradation experiments were diluted 1 in 10 in PBS (to a final volume of 250 μl). Glacial acetic acid (250 μl) was then added, followed by 250 μl of ninhydrin solution (25 mg/ml in acetic acid/6 M phosphoric acid; heated at 70 °C to dissolve). The reaction mixture was heated at 100 °C for 60 minutes, allowed to cool to room temperature and the proline containing fraction extracted with 500 μl of toluene and optical density measured at 520 nm.
# [2] = molecular target: T2, LTA4H epoxide hydrolase activity (LTB4 generation) (Mus musculus, UniProt P24527); experiment: LTA4H epoxide hydrolase activity: LTB4 generation by A23187-treated murine bone marrow neutrophils (EIA); type: cell-based; conditions: for IC50: LTB4 generation, murine neutrophils, read-out: Epoxide Hydrolase IC50 ± SEM
# T2 construct: endogenous in cells; host or cells: murine bone marrow neutrophils
# T2 sequence (P24527 1-611): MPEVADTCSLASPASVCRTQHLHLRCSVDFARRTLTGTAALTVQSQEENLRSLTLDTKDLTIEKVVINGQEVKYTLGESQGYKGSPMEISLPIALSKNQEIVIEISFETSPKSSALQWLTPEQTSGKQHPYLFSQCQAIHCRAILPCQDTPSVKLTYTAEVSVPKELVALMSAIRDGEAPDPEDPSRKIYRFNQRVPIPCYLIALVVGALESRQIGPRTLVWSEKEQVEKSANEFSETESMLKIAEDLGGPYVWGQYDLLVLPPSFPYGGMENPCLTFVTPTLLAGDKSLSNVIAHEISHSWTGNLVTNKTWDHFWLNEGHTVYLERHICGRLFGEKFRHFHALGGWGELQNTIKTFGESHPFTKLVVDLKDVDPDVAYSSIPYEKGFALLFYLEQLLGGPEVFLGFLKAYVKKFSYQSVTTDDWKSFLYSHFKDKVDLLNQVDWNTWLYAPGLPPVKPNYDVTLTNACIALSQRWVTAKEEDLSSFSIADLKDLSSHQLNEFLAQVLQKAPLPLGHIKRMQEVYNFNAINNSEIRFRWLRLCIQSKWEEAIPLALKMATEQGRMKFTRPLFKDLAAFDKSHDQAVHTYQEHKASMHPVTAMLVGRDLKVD
# Method: To isolate murine bone marrow neutrophils, the femur and the tibia from both hind legs were removed and freed of soft tissue attachments, and the extreme distal tip of each extremity cut off. HBSS containing 15 mM EDTA and 30 mM HEPES was forced through the bone with a syringe. After dispersing cell clumps and passage through a […] sieve (BD labware, New Jersey), red blood cells were lysed by resuspending pellets in ACK buffer (for 3 minutes at room temperature) before centrifugation (800 × g, 5 min) and washing with HBSS. The cell suspension was centrifuged (800 × g, 5 min, 4 °C) and resuspended in RPMI.
# (§1) 1% DMSO was used as a control. Cells were incubated for 20 minutes at 37 °C, and the reaction was terminated by centrifugation (600 × g, 5 min, 4 °C). Supernatants were removed and stored at −80 °C for subsequent LTB4 analysis. The concentration of LTB4 generated in the epoxide hydrolase activity assay was assayed using an EIA, according to manufacturer’s directions (R&D systems, Minneapolis, MN). Test compounds were assayed in a blinded manner by an investigator during determination of effect on LTA4H epoxide hydrolase activity.
# [3] = parameters: method as in PMID 12540402; conditions: metabolic stability reported; cited from earlier work
# LTA4H (PGP degradation) = tested on: LTA4H (PGP degradation); parameters: method as in PMID 24591641; conditions: concentration of 100 μM; 5 μg/ml LTA4H; cited from earlier work
# [4] = tested on: LTB4 production by neutrophils; parameters: method as in PMID 24591641; conditions: cited from earlier work
# [5] = Human plasma protein binding; type: in vitro ADME
# Source text: (§2) ARM1 (4-(4-benzylphenyl)-1,3-thiazole-2-amine), compound 11 (7-hydroxy-3-(4-hydroxyphenyl)-4H-chromen-4-one) and compound 13 (7-hydroxy-3-phenyl-4H-chromen-4-one) were all purchased from VitasMLab (Kowloon, Hong Kong). […] All other compounds were custom synthesized by Peakdale Molecular as described in Supplementary Information. ADMET (absorption, distribution, metabolism, and excretion – toxicity) studies were also outsourced to Peakdale Molecular.
# [6] = molecular target: T3, LTA4H epoxide hydrolase activity (LTB4 generation) (Homo sapiens, UniProt P09960); experiment: LTB4 generation by human blood-derived neutrophils; type: cell-based; conditions: preliminary data, blood-derived neutrophils from two distinct donors
# T3 construct: endogenous in cells; host or cells: human peripheral blood neutrophils from healthy volunteers
# T3 sequence (P09960 1-611): T1 sequence (P09960 1-611)
# Method: To isolate human neutrophils, peripheral blood was taken from healthy volunteers following informed consent and according to an approved protocol. Neutrophils were subsequently isolated using the MACSxpress™ Neutrophil Isolation Kit (Miltenyi Biotec, UK).
# as §1, with “1 × 10^5 murine bone marrow-derived neutrophils or human blood-derived neutrophils (compound 9 only) in 100 μl of RPMI were treated with A23187 at a final concentration of 20 μg/ml. 1%” for “1%”
# [7] = Mouse plasma protein binding; type: in vitro ADME
# Source text: as §2
# logD pH7.4 = type: physicochemical; conditions: pH 7.4; read-out: logDpH7.4
# Source text: as §2
# [8] = Mouse liver microsome stability; type: in vitro ADME; conditions: liver microsomes
# Source text: as §2
# [9] = Human liver microsome stability; type: in vitro ADME; conditions: liver microsomes
# Source text: as §2
smiles,measurement,setting,value
"O=c1c(-c2ccc(O)cc2)coc2cc(O)ccc12 [Compound 11, 7-hydroxy-3-(4-hydroxyphenyl)-4H-chromen-4-one]",IC50,"[1]; PGP degradation, Table 3, read-out: Aminopeptidase IC50 ± SEM",> 100 µM
same,IC50,[2]; Table 3,15 ± 2.3 µM
same,t1/2,[3],465 ± 21.6 min
"Nc1nc(-c2ccc(Cc3ccccc3)cc2)cs1 [ARM1, 4-(4-benzylphenyl)-1,3-thiazole-2-amine, reference compound]",inhibition of PGP degradation at 100 μM,LTA4H (PGP degradation),no inhibition
same,IC50,"[1]; PGP degradation, recombinant LTA4H, Table 1, read-out: Aminopeptidase IC50 ± SEM",9.11 µM
same,IC50,[1]; read-out: IC50 for inhibiting PGP degradation,~9.1 µM
same,IC50,[2]; Table 1,0.6 ± 0.0662 µM
same,IC50,[4],0.5 µM and ~0.5 µM
COc1cc(O)cc(CCc2ccccc2O)c1 [Compound 9],fraction unbound,[5],0.0225
same,IC50,"[1]; PGP degradation, Table 2, read-out: Aminopeptidase IC50 ± SEM",> 100 µM
same,inhibition of PGP degradation at 100 μM,[1]; concentration of 100 μM,no inhibition
same,IC50,[2]; Table 2,0.5 ± 0.04 µM
same,augmentation of LTB4 inhibitory capacity,"[2]; relocation of hydroxyl to R3-position, relative to compound 6",10 fold
same,IC50,[6],2.4 µM
same,fraction unbound,[7],0.0213
same,logD,logD pH7.4,2.25 ± 0.1
same,microsomal CLint,[8],466 ± 100 µL/min/mg
same,half-life,[8]; read-out: Mouse liver microsomes t1/2,1.5 min
same,microsomal CLint,[9],59.5 µL/min/mg
same,half-life,[9]; read-out: Human liver microsomes t1/2,11.7 min
